Results as given in publication PMC7571063, “High-Resolution Mass Spectrometry-Based Approaches for the Detection and Quantification of Peptidase Activity in Plasma” (Molecules, 2020).
“Also recorded” adds a separate entry of the source.

Tested on: proteases in pooled pig plasma
Assay: Multiplex substrate profiling by mass spectrometry (MSP-MS) of pig plasma with the 228-member tetradecapeptide library
Settings: pooled pig plasma ~50-fold diluted to 1 mg/mL protein, DPBS 1 mM DTT, room temperature, 15 and 60 min, LC-MS/MS, triplicate
Description: To quantify proteolytic activity in plasma samples obtained from healthy pigs, we used the MSP-MS assay, which is a global and unbiased substrate-based protease profiling approach. This assay uses a physicochemically diverse library of peptides as substrates for proteases present in a biological sample. Tandem mass spectrometry is used to quantify protease-derived peptide cleavage products. These substrates were designed to contain a unique dipeptide at each terminus (position 1–2 and 13–14) to profile exo-acting proteases and a central decapeptide sequence (position 3–12) consisting of all combinations of neighbor and near-neighbor amino acid pairs that are used to profile endoproteases [10].
Equal volumes of plasma from six pigs were mixed and then diluted to a final concentration of 1 mg/mL protein in assay buffer and mixed with the synthetic peptides. This dilution of ~50-fold reduced the concentration of plasma proteins and peptides in the assay that could interfere with the quantification of the synthetic peptides. Cleavage of synthetic peptides by proteases in neat plasma was predicted to occur in minutes and therefore dilution of plasma decreases the concentration of all proteases so that activity could be monitored at two time intervals over the course of an hour-long assay. This allowed us to detect and quantify peptide cleavage products after 15 and 60 min incubations. […]

## FRIHGFDEAHNAWM
  cleavage site of the library peptide by pig plasma proteases: cleaved between His-Asn; also recorded: cleaved between Ala-Trp
